In assay [1] the target is Lysine-specific demethylase 6B (Homo sapiens, UniProt O15054). Put plainly: Inhibition of KDM6B (unknown origin) expressed in Escherichia coli using H3 (21 to 44 residues) K27Me3-GGK-Biotin JMJD3 Cognate Ligand/10 uM alpha-ketoglutarate as substrate/cofactor preincubated for 5 mins followed by substrate addition measured after 5 mins by alphascreen assay.
Assay [2] deals with T1, Lysine-specific demethylase 4D (Homo sapiens, UniProt Q6B0I6).
T1 sequence (Q6B0I6 whole entry): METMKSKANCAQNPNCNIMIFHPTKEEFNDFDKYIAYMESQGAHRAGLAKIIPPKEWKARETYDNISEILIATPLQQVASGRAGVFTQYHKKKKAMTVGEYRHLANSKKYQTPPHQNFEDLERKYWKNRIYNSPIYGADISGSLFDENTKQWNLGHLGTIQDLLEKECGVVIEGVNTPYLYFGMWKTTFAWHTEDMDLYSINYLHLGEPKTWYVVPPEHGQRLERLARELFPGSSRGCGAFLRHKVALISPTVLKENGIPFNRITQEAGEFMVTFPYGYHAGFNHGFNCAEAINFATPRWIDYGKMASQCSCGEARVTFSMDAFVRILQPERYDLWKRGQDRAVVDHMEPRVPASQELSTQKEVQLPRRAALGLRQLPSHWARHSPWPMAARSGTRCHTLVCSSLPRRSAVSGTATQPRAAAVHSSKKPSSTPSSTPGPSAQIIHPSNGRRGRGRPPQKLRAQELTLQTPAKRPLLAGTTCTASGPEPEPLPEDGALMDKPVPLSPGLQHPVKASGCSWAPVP
Put plainly: Inhibition of KDM4D (unknown origin) expressed in Escherichia coli using H3 (1 to 21 residues) K9Me3-GGK-Biotin KDM4 Cognate Ligand/10 uM alpha-ketoglutarate as substrate/cofactor preincubated for 5 mins followed by substrate addition measured after 20 mins by alphascreen assay.

The target of assay [3] is T2, Lysine-specific demethylase 4C (Homo sapiens, UniProt Q9H3R0).
T2 sequence (Q9H3R0 whole entry): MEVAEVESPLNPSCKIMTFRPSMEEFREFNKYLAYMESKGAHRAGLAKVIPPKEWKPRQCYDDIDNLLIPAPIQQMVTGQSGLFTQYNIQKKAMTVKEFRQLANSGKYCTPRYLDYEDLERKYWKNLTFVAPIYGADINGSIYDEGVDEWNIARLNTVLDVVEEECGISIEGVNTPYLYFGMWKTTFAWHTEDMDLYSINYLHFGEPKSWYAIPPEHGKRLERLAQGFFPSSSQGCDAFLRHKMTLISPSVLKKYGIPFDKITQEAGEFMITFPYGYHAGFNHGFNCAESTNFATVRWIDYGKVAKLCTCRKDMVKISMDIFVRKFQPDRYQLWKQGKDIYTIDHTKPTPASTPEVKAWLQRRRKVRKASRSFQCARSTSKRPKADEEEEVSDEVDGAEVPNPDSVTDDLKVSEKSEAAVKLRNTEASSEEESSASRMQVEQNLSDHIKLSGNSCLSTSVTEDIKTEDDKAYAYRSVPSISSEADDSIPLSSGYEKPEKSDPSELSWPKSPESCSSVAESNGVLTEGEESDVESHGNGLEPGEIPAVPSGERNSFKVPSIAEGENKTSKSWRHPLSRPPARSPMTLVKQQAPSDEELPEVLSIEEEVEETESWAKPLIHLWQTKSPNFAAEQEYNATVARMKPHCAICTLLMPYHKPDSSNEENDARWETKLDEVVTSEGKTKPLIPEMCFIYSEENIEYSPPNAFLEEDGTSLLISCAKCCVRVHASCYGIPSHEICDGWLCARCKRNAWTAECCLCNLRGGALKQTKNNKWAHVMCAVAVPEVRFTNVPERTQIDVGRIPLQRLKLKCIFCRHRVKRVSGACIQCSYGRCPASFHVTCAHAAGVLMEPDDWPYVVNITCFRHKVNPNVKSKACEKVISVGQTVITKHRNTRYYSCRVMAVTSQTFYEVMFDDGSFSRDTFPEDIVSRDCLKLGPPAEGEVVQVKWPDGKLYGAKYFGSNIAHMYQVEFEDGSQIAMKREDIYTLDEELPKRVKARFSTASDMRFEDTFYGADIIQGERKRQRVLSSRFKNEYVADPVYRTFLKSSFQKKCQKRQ
Briefly: Inhibition of N-terminal His6-tagged KDM4C (1 to 352 residues) (unknown origin) expressed in Escherichia coli Rosetta 2(DE3)pLysS using biotinylated peptide/ 2 uM alpha-ketoglutarate as substrate/cofactor preincubated for 15 mins followed by substrate addition measured after 15 mins by alphascreen assay.

The target in assay [4] is Hypoxia-inducible factor 1-alpha inhibitor (Homo sapiens, UniProt Q9NWT6). Briefly: Inhibition of N-terminal His6-tagged full-length FIH (unknown origin) expressed in Escherichia coli Rosetta 2(DE3)pLysS using SMDESGLPQLTSYDCEVNAPIQGSRNLLQGEELLRALDQVN peptide/100 uM alpha-ketoglutarate as substrate/cofactor incubated for 45 mins by MALDI assay.

Molecules are shown by their SMILES. pIC50: −log10 of the molar value.

Hypoxia-inducible factor 1-alpha inhibitor, sequence (Q9NWT6 whole entry): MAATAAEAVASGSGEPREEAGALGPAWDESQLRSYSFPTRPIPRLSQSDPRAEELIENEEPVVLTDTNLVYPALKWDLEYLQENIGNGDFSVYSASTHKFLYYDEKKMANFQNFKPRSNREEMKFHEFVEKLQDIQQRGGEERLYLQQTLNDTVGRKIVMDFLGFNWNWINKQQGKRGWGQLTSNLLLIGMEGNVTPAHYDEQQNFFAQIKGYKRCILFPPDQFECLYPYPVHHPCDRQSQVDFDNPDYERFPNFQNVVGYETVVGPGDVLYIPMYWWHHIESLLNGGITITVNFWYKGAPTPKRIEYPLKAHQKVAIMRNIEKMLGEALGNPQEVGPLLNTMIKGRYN
Lysine-specific demethylase 6B, sequence (O15054 whole entry, the tested form may be a part): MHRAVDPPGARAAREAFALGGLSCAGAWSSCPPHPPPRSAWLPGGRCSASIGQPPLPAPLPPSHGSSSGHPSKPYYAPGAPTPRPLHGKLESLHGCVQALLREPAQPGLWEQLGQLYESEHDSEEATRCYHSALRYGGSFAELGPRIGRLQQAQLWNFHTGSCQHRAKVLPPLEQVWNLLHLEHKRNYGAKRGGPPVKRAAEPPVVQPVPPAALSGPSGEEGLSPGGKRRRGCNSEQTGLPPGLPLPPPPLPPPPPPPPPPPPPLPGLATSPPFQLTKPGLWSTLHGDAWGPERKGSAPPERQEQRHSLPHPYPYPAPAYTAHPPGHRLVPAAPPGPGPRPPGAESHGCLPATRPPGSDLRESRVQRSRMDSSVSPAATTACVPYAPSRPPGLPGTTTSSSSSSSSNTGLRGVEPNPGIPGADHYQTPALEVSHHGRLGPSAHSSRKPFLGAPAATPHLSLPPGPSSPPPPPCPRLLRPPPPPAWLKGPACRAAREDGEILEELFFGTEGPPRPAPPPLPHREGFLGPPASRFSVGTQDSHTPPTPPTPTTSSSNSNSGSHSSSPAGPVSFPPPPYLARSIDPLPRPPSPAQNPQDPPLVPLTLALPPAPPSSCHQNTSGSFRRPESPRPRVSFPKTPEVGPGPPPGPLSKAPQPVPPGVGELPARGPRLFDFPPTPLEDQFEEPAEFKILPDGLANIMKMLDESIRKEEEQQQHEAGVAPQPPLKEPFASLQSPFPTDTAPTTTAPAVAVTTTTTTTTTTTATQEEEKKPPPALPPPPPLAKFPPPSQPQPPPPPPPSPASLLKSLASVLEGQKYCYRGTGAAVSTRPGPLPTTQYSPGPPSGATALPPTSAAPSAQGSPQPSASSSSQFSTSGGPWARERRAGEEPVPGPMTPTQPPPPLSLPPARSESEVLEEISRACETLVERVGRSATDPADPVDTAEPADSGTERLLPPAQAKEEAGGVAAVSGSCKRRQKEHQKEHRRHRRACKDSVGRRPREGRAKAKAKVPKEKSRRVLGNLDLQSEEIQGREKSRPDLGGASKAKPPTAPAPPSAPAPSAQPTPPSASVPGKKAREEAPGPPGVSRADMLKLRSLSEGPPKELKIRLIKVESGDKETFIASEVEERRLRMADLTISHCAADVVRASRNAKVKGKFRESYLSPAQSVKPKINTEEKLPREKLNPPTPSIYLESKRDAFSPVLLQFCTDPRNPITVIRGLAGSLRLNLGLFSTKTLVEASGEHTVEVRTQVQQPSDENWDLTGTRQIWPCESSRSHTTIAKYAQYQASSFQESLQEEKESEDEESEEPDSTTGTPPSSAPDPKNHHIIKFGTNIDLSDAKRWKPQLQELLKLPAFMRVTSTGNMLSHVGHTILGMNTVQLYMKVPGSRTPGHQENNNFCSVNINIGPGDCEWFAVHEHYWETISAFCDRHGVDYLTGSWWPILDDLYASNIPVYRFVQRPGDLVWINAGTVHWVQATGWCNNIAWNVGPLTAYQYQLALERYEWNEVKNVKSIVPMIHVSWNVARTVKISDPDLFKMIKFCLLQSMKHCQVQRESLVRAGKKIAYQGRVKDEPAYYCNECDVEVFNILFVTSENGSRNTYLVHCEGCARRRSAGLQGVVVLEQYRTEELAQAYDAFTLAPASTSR

On to `O=C(O)c1ccnc(-c2cc(NC(=O)c3ccc(O)cc3)ccc2O)c1`, for which the pIC50 was 4.57 in assay [1], 4.89 in assay [2], 4.92 in assay [3] and < 3.30 in assay [4].

With `COCC(=O)Nc1ccc(O)c(-c2cc(C(=O)O)ccn2)c1`, the pIC50 in assay [1] is < 4.00; in assay [2], 5.38; in assay [3] it was 5.42; in assay [4] it was < 3.30.

Take `CC(=O)Nc1ccc(O)c(-c2cc(C(=O)O)ccn2)c1`: the pIC50 was < 4.00 in assay [1], 4.85 in assay [2], 4.82 in assay [3] and < 3.30 in assay [4].

`COc1cccc(CC(=O)Nc2ccc(O)c(-c3cc(C(=O)O)ccn3)c2)c1`: the pIC50 in assay [1] was 4.80; in assay [2], 4.96; in assay [3] it was 5.00; in assay [4] it was < 3.30.

In the case of `Cc1cc(C(=O)Nc2ccc(O)c(-c3cc(C(=O)O)ccn3)c2)no1`, the pIC50 in assay [1] was 4.51; in assay [2] it was 5.04; in assay [3], 5.26; in assay [4], 3.33.

(Values after ChEMBL document CHEMBL3774347, “Docking and Linking of Fragments To Discover Jumonji Histone Demethylase Inhibitors” (J Med Chem, 2016).)
